The target of test [1] is T1, 5-HT1C receptors (Rattus norvegicus, UniProt P08909).
T1 construct: tissue Charles River; host or cells: whole animal, male Sprague Dawley rats (central receptors, in vivo)
T1 sequence (P08909 33-460): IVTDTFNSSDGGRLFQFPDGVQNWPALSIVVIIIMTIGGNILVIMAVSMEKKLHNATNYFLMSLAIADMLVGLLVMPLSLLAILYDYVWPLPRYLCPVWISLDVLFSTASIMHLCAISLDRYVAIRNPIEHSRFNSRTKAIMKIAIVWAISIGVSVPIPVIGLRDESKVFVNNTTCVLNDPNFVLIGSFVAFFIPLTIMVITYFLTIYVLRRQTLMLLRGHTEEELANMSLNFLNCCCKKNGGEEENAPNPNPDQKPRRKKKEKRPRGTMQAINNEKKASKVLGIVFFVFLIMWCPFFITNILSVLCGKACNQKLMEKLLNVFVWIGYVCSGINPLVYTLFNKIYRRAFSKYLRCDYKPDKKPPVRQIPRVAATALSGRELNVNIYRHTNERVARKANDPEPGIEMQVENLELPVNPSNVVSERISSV
In words: Reversal of mCPP-induced hypolocomotion. The test is classed as in vivo. Conditions: po, p.o. 1 h pretest, mCPP 7 mg/kg i.p., male Sprague Dawley rats, read-out: ID50 (the source's name). The text has this: This effect was blocked by the non specific 5-HT1C /5-HT2 receptor antagonists mianserin, cyproheptadine and metergoline and perhaps by mesulergine. It was not blocked by the 5-HT2 receptor antagonists ketanserin and ritanserin at relevant doses (Kennett and Curzon 1991) nor by antagonists of 5-HT1A, 5-HT1B, 5-HT3, α2 adrenoceptors or dompamine D2 receptors. The effect of mCPP is therefore considered to be mediated by 5-HT1C receptors (Kennett and Curzon 1988) as confirmed by subsequent studies (Lucki et al., 1989). Since mCPP causes hypolocomotion when infused into the cerebral ventricles this effect is probably centrally mediated (Kennett and Curzon 1988).
mCPP-induced hypolocomotion was measured in automated locomotion cages of dimensions 56 cm long×161/2× cm wide×25 cm high and made of black perspex. Two photobeams traversed the width of the cages at either end at ground level. Sequential breaking of these beams allowed the measurement of cage transits.
Male Sprague Dawley rats (200-250 g) (Charles River) were housed in groups of six. They were given drugs orally 1 h pretest and 40 mins later mCPP (7 mg/kg i.p.). After a further 20 min they were placed in individual automated cages in groups of four under red light in an adjacent room. After 10 min the test was terminated. […]

The target in the next test is T2, 5-HT1C -like Receptors (Rattus norvegicus, UniProt P30994).
T2 construct: tissue Charles River; host or cells: stomach fundus strips of male CD rats
T2 sequence (P30994 whole entry): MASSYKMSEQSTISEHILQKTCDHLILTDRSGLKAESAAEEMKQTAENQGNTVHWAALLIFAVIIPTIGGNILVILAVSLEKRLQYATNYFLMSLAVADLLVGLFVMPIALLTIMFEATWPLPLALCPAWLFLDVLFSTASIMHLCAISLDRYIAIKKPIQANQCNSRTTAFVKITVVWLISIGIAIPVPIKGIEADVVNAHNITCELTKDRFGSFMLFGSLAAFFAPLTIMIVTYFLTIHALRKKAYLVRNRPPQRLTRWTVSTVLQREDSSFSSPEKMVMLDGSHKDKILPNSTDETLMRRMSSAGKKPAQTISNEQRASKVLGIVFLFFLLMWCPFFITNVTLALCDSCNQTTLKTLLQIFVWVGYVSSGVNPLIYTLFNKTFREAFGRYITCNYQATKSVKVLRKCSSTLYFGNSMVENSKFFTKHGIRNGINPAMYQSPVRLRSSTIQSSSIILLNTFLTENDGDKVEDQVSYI
In words: Rat fundic strip, antagonism of 5-HT. The settings on record: agonist 5-HT, read-out: pA2 (converted). The text has this:
The 5-HT receptor in the rat fundic strip (RFS) has been characterised as `5-HT1C -like` as its pharmacology is similar, but not identical, to that of rat 5-HT1C receptor dones.
Whole stomachs were obtained from male CD Rats (Charles River, 250-350 g). Strips of fundus (2 cm×0.5 cm) were cut from the greater curvature and the mucesae carefully removed. Tissues were then further dissected into smaller strips (2 mm×20 mm) which were mounted in organ baths containing oxygensted Tyrodes solution at 37° C. containing indomethacin (3 μM). Preparations were maintained under a resting tension of 0.5 g and exposed to the irreversible MAO inhibitor pargyline (100 μM for 30 minutes followed by washout). Over a 1 h equilibration period, rat fundic strips were challenged with 1×10^-8 M 5-HT at 15 minute intervals until constant responses were obtained. Fifteen minutes later, a complete cumulative concentration-effect curve to the standard agonist 5-HT (1×10^-10 upwards) was constructed to determine the individual sensitivity of each preparation. A further concentration-effect curve to either 5-HT, or other agonists was constructed no sooner than 1 h after completion of the previous curve. When necessary tissues were equilibrated with the antagonists over this one hour period. Antagonists affinities are expressed as pA2 estimates.

Test [2] relates to rat stomach fundus seretonin receptor. Conditions: J. Med. Chem. 1986 29 2415-2418; cited from earlier work.
For test [3], the target named is T1, 5-HT1C receptors. The settings on record: rats; literature (Kennett and Curzon); cited from earlier work.

Consider `Cn1ccc2cc(NC(=O)Nc3cccnn3)ccc21` [Example 2, N-(1-Methyl-5-indolyl)-N'-(3-pyridazinyl) urea], for which the ED50 on 5-HT1C receptors [1] is 47 mg/kg.
On the same count and under the same terms, under `Cn1ccc2cc(NC(=O)Nc3cncnc3)ccc21` [Example 3, N-(1-Methyl-5-indolyl)-N'-(5-pyrimidinyl) urea] stands 43.7 mg/kg.
For `Cc1cc(NC(=O)Nc2ccc3c(ccn3C)c2)sn1` [Example 5, N-(1-Methyl-5-indolyl)-N'-(3-methyl-5-isothiazolyl) urea], the Kb at 5-HT1C -like Receptors was 12.6 nM.
For the compound `CCc1c(C)n(C)c2ccc(NC(=O)Nc3cccc(C(F)(F)F)c3)cc12` [N-(1,2-dimethyl-3-ethyl-1H-indol-5-yl)-N'-(3-trifluoromethylphenyl)urea], the “selectivity for the rat stomach fundus serotonin receptor” value in test [2] is reported as “shows selectivity”.
On to `CN1CCC(=C2c3ccccc3C=Cc3ccccc32)CC1` [cyproheptadine], for which, at 5-HT1C receptors [3], the “block of mCPP-induced hypolocomotion” value is given as “blocked”.
In the case of `O=C(c1ccc(F)cc1)C1CCN(CCn2c(=O)[nH]c3ccccc3c2=O)CC1` [ketanserin], the “block of mCPP-induced hypolocomotion” value at 5-HT1C receptors [3] is “not blocked”.
Take `CN1C[C@@H](NS(=O)(=O)N(C)C)C[C@@H]2c3cccc4c3c(cn4C)C[C@H]21` [mesulergine]: at 5-HT1C receptors [3], the “block of mCPP-induced hypolocomotion” value was “perhaps”.
As to `CN1C[C@H](CNC(=O)OCc2ccccc2)C[C@@H]2c3cccc4c3c(cn4C)C[C@H]21` [metergoline], the “block of mCPP-induced hypolocomotion” value at 5-HT1C receptors [3] was “blocked”.
Consider `CN1CCN2c3ccccc3Cc3ccccc3C2C1` (stereo not shown) [mianserin], for which the “block of mCPP-induced hypolocomotion” value at 5-HT1C receptors [3] is “blocked”.
For `Cc1nc2sccn2c(=O)c1CCN1CCC(=C(c2ccc(F)cc2)c2ccc(F)cc2)CC1` [ritanserin], on 5-HT1C receptors [3], the “block of mCPP-induced hypolocomotion” value is given as “not blocked”.

Source of the values: patent US5508288A, “Indole derivatives as 5HT1C antagonists” (SmithKline Beecham, p.l.c., priority 1992, dated 1996).
